Our source for the TGI and GI50 values is PubChem BioAssay (NCI).

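The compound was tested at five concentrations on cells cultured in 96-well plates, with a 48-hour exposure period. Here, GI50 denotes the concentration required for 50% inhibition of growth. At the TGI there is no net growth.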

Among the test systems are COLO 205 colon; DU-145 prostate; M14 melanoma; MCF7 breast; OVCAR-4 ovarian; OVCAR-8 ovarian; SF-268 CNS; SK-MEL-28 melanoma; SR leukemia; UACC-62 melanoma.
Assay in all cases: inhibition of tumour cell growth, NCI panel, 48 h

With `CN1C(=O)C23CC4=CC=CC(O)C4N2C(=O)C1(CO)SS3` (stereo not given), the TGI was found to be 0.292 µM with COLO 205 colon; 0.318 µM in the assay with DU-145 prostate; 0.295 µM in the assay on M14 melanoma; 0.371 µM with MCF7 breast; 0.524 µM in the assay with OVCAR-4 ovarian; 0.154 µM in the assay on OVCAR-8 ovarian. In addition, the TGI came to 0.489 µM in the assay with SF-268 CNS, 2.26 µM in the assay on SK-MEL-28 melanoma, 0.0996 µM with SR leukemia and 0.424 µM with UACC-62 melanoma.

On to `CCOC(=O)Cc1csc(NC(=O)C(OC(=O)c2ccc(N)cc2)c2ccccc2)n1` (stereo not given), for which the GI50 is 46.2 µM with COLO 205 colon; 48.3 µM in the assay on DU-145 prostate; 22.6 µM with M14 melanoma; 32.3 µM in the assay with MCF7 breast; 32.7 µM in the assay with OVCAR-4 ovarian; 73.6 µM in the assay with OVCAR-8 ovarian. The GI50 in the assay on SF-268 CNS was 35.5 µM; in the assay on SK-MEL-28 melanoma it was 30.9 µM; in the assay with SR leukemia it was 21.2 µM; in the assay with UACC-62 melanoma it was 25.9 µM. Besides, the TGI in the assay with COLO 205 colon is greater than 100 µM; in the assay with DU-145 prostate, greater than 100 µM; with M14 melanoma, 62.5 µM; in the assay on MCF7 breast it was greater than 100 µM; in the assay on OVCAR-4 ovarian, greater than 100 µM; in the assay on OVCAR-8 ovarian, greater than 100 µM. For the same compound, the TGI was greater than 100 µM in the assay on SF-268 CNS, 98 µM with SK-MEL-28 melanoma, greater than 100 µM with SR leukemia and 65.6 µM in the assay with UACC-62 melanoma.

Regarding `CC(C)(C)NCCC(O)c1cc(C(F)(F)F)nc2c(C(F)(F)F)cccc12` (stereo not given), the TGI stood at 25.5 µM in the assay on COLO 205 colon; 6.17 µM with DU-145 prostate; 19.4 µM in the assay on M14 melanoma; 27.6 µM with MCF7 breast; 27.1 µM in the assay with OVCAR-4 ovarian; 17.8 µM with OVCAR-8 ovarian. Moreover, the TGI in the assay with SF-268 CNS stood at 24.2 µM; in the assay with SK-MEL-28 melanoma, 30.7 µM; in the assay with SR leukemia, 13.5 µM; in the assay with UACC-62 melanoma, 25.3 µM.

As for `Cc1csc(Nc2nc(-c3cccc(Cl)c3)nc(C(Cl)(Cl)Cl)n2)n1`, the GI50 in the assay with COLO 205 colon was 1.04 µM; in the assay on DU-145 prostate, 0.713 µM; with M14 melanoma, greater than 33.3 µM; with MCF7 breast it was 1.46 µM; with OVCAR-4 ovarian, 10.7 µM; in the assay with OVCAR-8 ovarian, 7.77 µM. In addition, the GI50 in the assay on SF-268 CNS was 6.48 µM; in the assay with SK-MEL-28 melanoma it was 3.53 µM; in the assay with SR leukemia, 16.8 µM; in the assay with UACC-62 melanoma, 6.73 µM. The TGI in the assay with COLO 205 colon was 5.43 µM; in the assay on DU-145 prostate, 2.01 µM; in the assay on M14 melanoma, greater than 33.3 µM; in the assay on MCF7 breast, greater than 33.3 µM; in the assay on OVCAR-4 ovarian, greater than 33.3 µM; in the assay with OVCAR-8 ovarian it was greater than 33.3 µM. In addition, the TGI with SF-268 CNS, with SK-MEL-28 melanoma, in the assay on SR leukemia and with UACC-62 melanoma was greater than 33.3 µM in each case.

`O=[N+]([O-])c1cccc(-c2ncc(-c3ccc(Cl)cc3Cl)[nH]2)c1`: the GI50 in the assay with COLO 205 colon was 3.45 µM; in the assay with DU-145 prostate, 4.46 µM; with M14 melanoma, 8.35 µM; in the assay with MCF7 breast, 1.14 µM; with OVCAR-4 ovarian, 3.18 µM; in the assay on OVCAR-8 ovarian, 22.4 µM. For the same compound, the GI50 is 2.92 µM in the assay with SF-268 CNS, 1.79 µM in the assay with SK-MEL-28 melanoma, 0.471 µM in the assay on SR leukemia and 7.63 µM in the assay with UACC-62 melanoma. Moreover, the TGI in the assay on COLO 205 colon is 11.4 µM; in the assay on DU-145 prostate, 10.5 µM; with M14 melanoma it was 26.9 µM; in the assay with MCF7 breast, 3.57 µM; in the assay with OVCAR-4 ovarian, 12.1 µM; in the assay on OVCAR-8 ovarian, 53.3 µM. Also, the TGI in the assay on SF-268 CNS was 9.57 µM; in the assay with SK-MEL-28 melanoma it was 3.72 µM; in the assay with SR leukemia, 2.44 µM; in the assay with UACC-62 melanoma, 20.6 µM.

Regarding `CN1CC(C(=O)NC2(C)OC3(O)C4CCCN4C(=O)C(Cc4ccccc4)N3C2=O)C=C2c3cccc4[nH]cc(c34)CC21` (stereo not given), the TGI in the assay with COLO 205 colon was 40 µM; in the assay on DU-145 prostate, 67.8 µM; with M14 melanoma, 81.4 µM; with MCF7 breast it was greater than 100 µM; in the assay with OVCAR-4 ovarian, greater than 100 µM; with OVCAR-8 ovarian it was 53.7 µM. For the same compound, the TGI with SF-268 CNS is 29.6 µM; in the assay on SK-MEL-28 melanoma it was 35.2 µM; in the assay with SR leukemia, 60.7 µM; with UACC-62 melanoma, 34.7 µM.

For `CCCCCCN(CCCCCC)CC(O)c1cccc2ccc(Cl)cc12` (stereo not given), the GI50 in the assay on COLO 205 colon is 3.82 µM; with DU-145 prostate, 11.6 µM; in the assay with M14 melanoma it was 9.48 µM; in the assay on MCF7 breast, 7.52 µM; in the assay on OVCAR-4 ovarian it was 7.44 µM; in the assay with OVCAR-8 ovarian, 15.7 µM. Also, the GI50 is 12.4 µM with SF-268 CNS, 12 µM in the assay on SK-MEL-28 melanoma, 3.55 µM in the assay on SR leukemia and 8.11 µM in the assay on UACC-62 melanoma. In addition, the TGI in the assay with COLO 205 colon was 14.9 µM; in the assay with DU-145 prostate, 25 µM; with M14 melanoma, 22 µM; with MCF7 breast, 20.3 µM; with OVCAR-4 ovarian it was 33 µM; in the assay on OVCAR-8 ovarian it was 32.7 µM. In addition, the TGI with SF-268 CNS stood at 27.1 µM; in the assay with SK-MEL-28 melanoma, 24.3 µM; in the assay with SR leukemia it was 9.85 µM; in the assay on UACC-62 melanoma, 21.2 µM.
